The values below come from patent US20070208001A1, “Modulators of 11- beta hydroxyl steroid dehydrogenase type 1, pharmaceutical compositions thereof, and methods of using the same” (priority 2006, published 2007).

The target in experiment [1] is T1, human 11βHSD1 (Homo sapiens, UniProt P28845).
T1 construct: made in house; host or cells: HEK-293 transient transfectants; clarified lysate, not purified
Put plainly: Enzymatic assay of 11βHSD1 (Scintillation Proximity Assay, clarified lysates). The class given is biochemical. The settings on record: SPA, HEK-293 lysate expressing full-length human 11βHSD1, 25 nM 3H-cortisone, 400 μM NADPH, 37° C., one hour. On the procedure:
Enzymatic assay of 11βHSD1
All in vitro assays were performed with clarified lysates as the source of 11βHSD1 activity. HEK-293 transient transfectants expressing an epitope-tagged version of full-length human 11βHSD1 were harvested by centrifugation. Roughly 2×10^7 cells were resuspended in 40 mL of lysis buffer (25 mM Tris-HCl, pH 7.5, 0.1 M NaCl, 1 mM MgCl2 and 250 mM sucrose) and lysed in a microfluidizer. Lysates were clarified by centrifugation and the supernatants were aliquoted and frozen.
Inhibition of 11βHSD1 by test compounds was assessed in vitro by a Scintillation Proximity Assay (SPA). Dry test compounds were dissolved at 5 mM in DMSO. These were diluted in DMSO to suitable concentrations for the SPA assay. 0.8 μL of 2-fold serial dilutions of compounds were dotted on 384 well plates in DMSO such that 3 logs of compound concentration were covered. 20 μL of clarified lysate was added to each well. Reactions were initiated by addition of 20 μL of substrate-cofactor mix in assay buffer (25 mM Tris-HCl, pH 7.5, 0.1 M NaCl, 1 mM MgCl2) to final concentrations of 400 μM NADPH, 25 nM ^3H-cortisone and 0.007% Triton X-100. Plates were incubated at 37° C. for one hour. […] Quenched plates were incubated for a minimum of 30 minutes at RT prior to reading on a Topcount scintillation counter. […]
In general terms: Scintillation proximity formats need no separation of bound from free tracer.

The subject of experiment [2] is healthy volunteers. The settings on record: after seven days of carbenoxolone treatment; cited from earlier work.

T1 sequence (P28845 whole entry): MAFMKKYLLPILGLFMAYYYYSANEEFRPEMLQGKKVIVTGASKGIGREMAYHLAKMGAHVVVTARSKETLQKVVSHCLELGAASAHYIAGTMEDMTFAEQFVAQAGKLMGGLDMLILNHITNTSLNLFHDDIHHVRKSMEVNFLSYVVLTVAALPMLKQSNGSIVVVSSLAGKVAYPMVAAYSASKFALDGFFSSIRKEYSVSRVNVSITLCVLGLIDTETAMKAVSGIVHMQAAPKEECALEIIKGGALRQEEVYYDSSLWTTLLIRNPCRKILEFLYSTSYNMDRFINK

The compound `CC(=O)N1CCC2(CC(C3(c4ccc(Cl)cc4)CC3)=NO2)C1` (centres unmarked) [Example 1, 7-Acetyl-3-[1-(4-chlorophenyl)cyclopropyl]-1-oxa-2,7-diazaspiro[4.4]non-2-ene] gave an IC50 in experiment [1] of less than 5 µM.

Consider `CC1(C)[C@@H](OC(=O)CCC(=O)O)CC[C@]2(C)[C@H]3C(=O)C=C4[C@@H]5C[C@@](C)(C(=O)O)CC[C@]5(C)CC[C@@]4(C)[C@]3(C)CC[C@@H]12` [carbenoxolone], for which, in experiment [2], the “IOP was reduced by” value was 18%.

A word on the IC50: it is the concentration needed to halve the response being measured. Low readings indicate greater potency, high ones weaker potency.
